According to publication PMC3317778, “Development of a Unique Small Molecule Modulator of CXCR4” (PLoS ONE, 2012):

Columns and labels:
[1] = target: T1, CXC chemokine receptor-4 (CXCR4) (Homo sapiens, UniProt P61073)
[2] = target: T1, CXC chemokine receptor-4 (CXCR4); test: competition with biotinylated TN14003 on MDA-MB-231 cells (immunofluorescence); supported by CXCL12-induced cAMP modulation assay in CXCR4-expressing cells (IC50 is for CXCR4/CXCL12 actions); assay type: cell-based

T1 sequence (P61073 whole entry): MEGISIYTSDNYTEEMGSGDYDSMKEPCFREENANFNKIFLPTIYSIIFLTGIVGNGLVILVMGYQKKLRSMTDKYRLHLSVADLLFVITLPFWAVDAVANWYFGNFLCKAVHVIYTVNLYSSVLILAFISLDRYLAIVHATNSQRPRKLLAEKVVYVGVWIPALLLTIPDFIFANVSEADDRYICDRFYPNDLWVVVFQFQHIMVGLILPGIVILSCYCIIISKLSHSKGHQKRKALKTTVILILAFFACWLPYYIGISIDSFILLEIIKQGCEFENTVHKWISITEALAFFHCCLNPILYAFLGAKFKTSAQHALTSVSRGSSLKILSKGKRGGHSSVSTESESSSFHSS

| SMILES | reference antagonist; block of CXCL12-induced cAMP reduction in U87CD4CXCR4 cell [1] [nM] | IC50 [2] [nM] |
| --- | --- | --- |
| c1cc(CN2CCCNCCNCCCNCC2)ccc1CN1CCCNCCNCCCNCC1 [AMD3100] | 1000 |  |
| c1cnc(NCc2ccc(CNc3ncccn3)cc2)nc1 [MSX-122, N,N′-(1,4-phenylenebis(methylene))dipyrimidin-2-amine] |  | ~10 |
